Laboratory results: ChEMBL document CHEMBL1833873, “Design and synthesis of C35-fluorinated solamins and their growth inhibitory activities against human cancer cell lines” (2011)

What was measured:
Assay type in all cases: functional
[1] = Cytotoxicity against human HBC4 cells after 48 hrs by sulforhodamine B assay; conditions: HBC4, 48 h
[2] = Cytotoxicity against human BSY1 cells after 48 hrs by sulforhodamine B assay; conditions: BSY-1, 48 h
[3] = Cytotoxicity against human HBC5 cells after 48 hrs by sulforhodamine B assay; conditions: HBC5, 48 h
[4] = tested on: MCF7; assay: Cytotoxicity against human MCF7 cells after 48 hrs by sulforhodamine B assay; conditions: MCF7, 48 h
[5] = tested on: MDA-MB-231; assay: Cytotoxicity against human MDA-MB-231 cells after 48 hrs by sulforhodamine B assay; conditions: MDA-MB-231, 48 h
[6] = tested on: U-251; assay: Cytotoxicity against human U251 cells after 48 hrs by sulforhodamine B assay; conditions: U-251, 48 h
[7] = tested on: SF-268; assay: Cytotoxicity against human SF268 cells after 48 hrs by sulforhodamine B assay; conditions: SF-268, 48 h
[8] = tested on: SF-295; assay: Cytotoxicity against human SF295 cells after 48 hrs by sulforhodamine B assay; conditions: SF-295, 48 h
[9] = tested on: SF-539; assay: Cytotoxicity against human SF539 cells after 48 hrs by sulforhodamine B assay; conditions: SF-539, 48 h
[10] = tested on: SNB-75; assay: Cytotoxicity against human SNB75 cells after 48 hrs by sulforhodamine B assay; conditions: SNB-75, 48 h
[11] = tested on: SNB-78; assay: Cytotoxicity against human SNB78 cells after 48 hrs by sulforhodamine B assay; conditions: SNB-78, 48 h
[12] = tested on: HCC 2998; assay: Cytotoxicity against human HCC2998 cells after 48 hrs by sulforhodamine B assay; conditions: HCC 2998, 48 h
[13] = tested on: KM12; assay: Cytotoxicity against human KM12 cells after 48 hrs by sulforhodamine B assay; conditions: KM12, 48 h
[14] = tested on: HT-29; assay: Cytotoxicity against human HT-29 cells after 48 hrs by sulforhodamine B assay; conditions: HT-29, 48 h
[15] = tested on: HCT-15; assay: Cytotoxicity against human HCT15 cells after 48 hrs by sulforhodamine B assay; conditions: HCT-15, 48 h
[16] = tested on: HCT-116; assay: Cytotoxicity against human HCT116 cells after 48 hrs by sulforhodamine B assay; conditions: HCT-116, 48 h
[17] = tested on: NCI-H23; assay: Cytotoxicity against human NCI-H23 cells after 48 hrs by sulforhodamine B assay; conditions: NCI-H23, 48 h
[18] = tested on: NCI-H226; assay: Cytotoxicity against human NCI-H226 cells after 48 hrs by sulforhodamine B assay; conditions: NCI-H226, 48 h
[19] = tested on: NCI-H522; assay: Cytotoxicity against human NCI-H522 cells after 48 hrs by sulforhodamine B assay; conditions: NCI-H522, 48 h
[20] = tested on: NCI-H460; assay: Cytotoxicity against human NCI-H460 cells after 48 hrs by sulforhodamine B assay; conditions: NCI-H460, 48 h
[21] = tested on: A549; assay: Cytotoxicity against human A549 cells after 48 hrs by sulforhodamine B assay; conditions: A549, 48 h
[22] = tested on: DMS-273; assay: Cytotoxicity against human DMS273 cells after 48 hrs by sulforhodamine B assay; conditions: DMS-273, 48 h
[23] = tested on: DMS-114; assay: Cytotoxicity against human DMS114 cells after 48 hrs by sulforhodamine B assay; conditions: DMS-114, 48 h
[24] = tested on: LOX IMVI; assay: Cytotoxicity against human LOXIMVI cells after 48 hrs by sulforhodamine B assay
[25] = tested on: OVCAR-3; assay: Cytotoxicity against human OVCAR3 cells after 48 hrs by sulforhodamine B assay; conditions: OVCAR-3, 48 h
[26] = tested on: OVCAR-4; assay: Cytotoxicity against human OVCAR4 cells after 48 hrs by sulforhodamine B assay; conditions: OVCAR-4, 48 h
[27] = tested on: OVCAR-5; assay: Cytotoxicity against human OVCAR5 cells after 48 hrs by sulforhodamine B assay; conditions: OVCAR-5, 48 h
[28] = tested on: OVCAR-8; assay: Cytotoxicity against human OVCAR8 cells after 48 hrs by sulforhodamine B assay; conditions: OVCAR-8, 48 h
[29] = tested on: SK-OV-3; assay: Cytotoxicity against human SKOV3 cells after 48 hrs by sulforhodamine B assay; conditions: SK-OV-3, 48 h
[30] = Cytotoxicity against human RXF631L cells after 48 hrs by sulforhodamine B assay; conditions: RXF 631, 48 h
[31] = tested on: ACHN; assay: Cytotoxicity against human ACHN cells after 48 hrs by sulforhodamine B assay
[32] = tested on: St-4; assay: Cytotoxicity against human St-4 cells after 48 hrs by sulforhodamine B assay; conditions: St-4, 48 h
[33] = Cytotoxicity against human MKN1 cells after 48 hrs by sulforhodamine B assay; conditions: MKN-1, 48 h
[34] = tested on: MKN-7; assay: Cytotoxicity against human MKN7 cells after 48 hrs by sulforhodamine B assay; conditions: MKN-7, 48 h
[35] = tested on: MKN-28; assay: Cytotoxicity against human MKN28 cells after 48 hrs by sulforhodamine B assay; conditions: MKN-28, 48 h
[36] = tested on: MKN-45; assay: Cytotoxicity against human MKN45 cells after 48 hrs by sulforhodamine B assay; conditions: MKN-45, 48 h
[37] = tested on: MKN-74; assay: Cytotoxicity against human MKN74 cells after 48 hrs by sulforhodamine B assay; conditions: MKN-74, 48 h
[38] = tested on: DU-145; assay: Cytotoxicity against human DU145 cells after 48 hrs by sulforhodamine B assay; conditions: DU-145, 48 h
[39] = tested on: PC-3; assay: Cytotoxicity against human PC3 cells after 48 hrs by sulforhodamine B assay; conditions: PC-3, 48 h

Compound	GI50 [1] [µM]	GI50 [2] [µM]	GI50 [3] [µM]	GI50 [4] [µM]	GI50 [5] [µM]	GI50 [6] [µM]	GI50 [7] [µM]	GI50 [8] [µM]	GI50 [9] [µM]	GI50 [10] [µM]	GI50 [11] [µM]	GI50 [12] [µM]	GI50 [13] [µM]	GI50 [14] [µM]	GI50 [15] [µM]	GI50 [16] [µM]	GI50 [17] [µM]	GI50 [18] [µM]	GI50 [19] [µM]	GI50 [20] [µM]	further results
CCCCCCCCCCCC[C@@H](O)[C@H]1CC[C@H]([C@H](O)CCCCCCCCCCCCC2=C[C@H](CF)OC2=O)O1	> 100	60	32	45	59	> 100	> 100	36	> 100	63	> 100	> 100	> 100	63	> 100	16	12	51	15	79	GI50 [21]: 76 µM; GI50 [22]: 48 µM; GI50 [23]: 6.9 µM; GI50 [24]: > 100 µM; GI50 [25]: > 100 µM; GI50 [26]: > 100 µM; GI50 [27]: > 100 µM; GI50 [28]: 16 µM; GI50 [29]: > 100 µM; GI50 [30]: > 100 µM; GI50 [31]: > 100 µM; GI50 [32]: 37 µM; GI50 [33]: 58 µM; GI50 [34]: 19 µM; GI50 [35]: 7.8 µM; GI50 [36]: 76 µM; GI50 [37]: 40 µM; GI50 [38]: > 100 µM; GI50 [39]: 24 µM
CCCCCCCCCCCC[C@@H](O)[C@H]1CC[C@H]([C@H](O)CCCCCCCCCCCCC2=C[C@H](C(F)F)OC2=O)O1	32	> 100	11	61	> 100	> 100	> 100	44	79	> 100	> 100	> 100	> 100	> 100	82	> 100	75	63	24	> 100	GI50 [21]: > 100 µM; GI50 [22]: 16 µM; GI50 [23]: 24 µM; GI50 [24]: 15 µM; GI50 [25]: > 100 µM; GI50 [26]: 87 µM; GI50 [27]: > 100 µM; GI50 [28]: 85 µM; GI50 [29]: > 100 µM; GI50 [30]: > 100 µM; GI50 [31]: > 100 µM; GI50 [32]: > 100 µM; GI50 [33]: 67 µM; GI50 [34]: 19 µM; GI50 [35]: 96 µM; GI50 [36]: > 100 µM; GI50 [37]: 57 µM; GI50 [38]: > 100 µM; GI50 [39]: 60 µM
CCCCCCCCCCCC[C@@H](O)[C@H]1CC[C@H]([C@H](O)CCCCCCCCCCCCC2=C[C@H](C(F)(F)F)OC2=O)O1	> 100	> 100	> 100	80	> 100	> 100	> 100	72	> 100	> 100	> 100	> 100	> 100	> 100	> 100	> 100	> 100	88	53	> 100	GI50 [21]: > 100 µM; GI50 [22]: > 100 µM; GI50 [23]: 52 µM; GI50 [24]: > 100 µM; GI50 [25]: > 100 µM; GI50 [26]: > 100 µM; GI50 [27]: > 100 µM; GI50 [28]: > 100 µM; GI50 [29]: > 100 µM; GI50 [30]: > 100 µM; GI50 [31]: > 100 µM; GI50 [32]: > 100 µM; GI50 [33]: > 100 µM; GI50 [34]: 89 µM; GI50 [35]: > 100 µM; GI50 [36]: > 100 µM; GI50 [37]: > 100 µM; GI50 [38]: > 100 µM; GI50 [39]: > 100 µM
CCCCCCCCCCCC[C@@H](O)[C@H]1CC[C@H]([C@H](O)CCCCCCCCCCCCC2=C[C@H](C)OC2=O)O1 [REL-SOLAMIN]	> 100	> 100	> 100	71	> 100	> 100	> 100	40	> 100	> 100	> 100	> 100	> 100	> 100	> 100	> 100	73	> 100	58	> 100	GI50 [21]: > 100 µM; GI50 [22]: > 100 µM; GI50 [23]: 4.3 µM; GI50 [24]: 29 µM; GI50 [25]: > 100 µM; GI50 [26]: > 100 µM; GI50 [27]: > 100 µM; GI50 [28]: > 100 µM; GI50 [29]: > 100 µM; GI50 [30]: > 100 µM; GI50 [31]: > 100 µM; GI50 [32]: > 100 µM; GI50 [33]: > 100 µM; GI50 [34]: 13 µM; GI50 [35]: 14 µM; GI50 [36]: > 100 µM; GI50 [37]: > 100 µM; GI50 [38]: > 100 µM; GI50 [39]: > 100 µM
